# ChEMBL document CHEMBL1201862, “PubChem BioAssay data set” (2004)
# Calls of active or inactive are those of the source.
# Experiments:
# [1] = Counterscreen for IDE inhibitors: Luminescence-based cell-based high throughput dose response assay to identify compounds that are cytotoxic to HEK cells. [Related pubchem assays: 434962 (Primary screen (IDE inhibitors in singlicate)), 449730 (Counterscreen (Cytotoxicity in triplicate)), 435028 (Confirmation (IDE inhibitors in triplicate)) …; format: functional; details: HEK293
# [2] = target: T1, Insulin-degrading enzyme (Homo sapiens, UniProt P14735); assay: Dose Response: Fluorescence polarization-based cell-based high throughput dose response assay for inhibitors of insulin-degrading enzyme (IDE). [Related pubchem assays: 434962 (Primary screen (IDE inhibitors in singlicate)), 449730 (Counterscreen (Cytotoxicity in triplicate)), 435028 (Confirmation (IDE inhibitors in triplicate)), 434984 (Summary …; format: functional
# T1 sequence (P14735 whole entry): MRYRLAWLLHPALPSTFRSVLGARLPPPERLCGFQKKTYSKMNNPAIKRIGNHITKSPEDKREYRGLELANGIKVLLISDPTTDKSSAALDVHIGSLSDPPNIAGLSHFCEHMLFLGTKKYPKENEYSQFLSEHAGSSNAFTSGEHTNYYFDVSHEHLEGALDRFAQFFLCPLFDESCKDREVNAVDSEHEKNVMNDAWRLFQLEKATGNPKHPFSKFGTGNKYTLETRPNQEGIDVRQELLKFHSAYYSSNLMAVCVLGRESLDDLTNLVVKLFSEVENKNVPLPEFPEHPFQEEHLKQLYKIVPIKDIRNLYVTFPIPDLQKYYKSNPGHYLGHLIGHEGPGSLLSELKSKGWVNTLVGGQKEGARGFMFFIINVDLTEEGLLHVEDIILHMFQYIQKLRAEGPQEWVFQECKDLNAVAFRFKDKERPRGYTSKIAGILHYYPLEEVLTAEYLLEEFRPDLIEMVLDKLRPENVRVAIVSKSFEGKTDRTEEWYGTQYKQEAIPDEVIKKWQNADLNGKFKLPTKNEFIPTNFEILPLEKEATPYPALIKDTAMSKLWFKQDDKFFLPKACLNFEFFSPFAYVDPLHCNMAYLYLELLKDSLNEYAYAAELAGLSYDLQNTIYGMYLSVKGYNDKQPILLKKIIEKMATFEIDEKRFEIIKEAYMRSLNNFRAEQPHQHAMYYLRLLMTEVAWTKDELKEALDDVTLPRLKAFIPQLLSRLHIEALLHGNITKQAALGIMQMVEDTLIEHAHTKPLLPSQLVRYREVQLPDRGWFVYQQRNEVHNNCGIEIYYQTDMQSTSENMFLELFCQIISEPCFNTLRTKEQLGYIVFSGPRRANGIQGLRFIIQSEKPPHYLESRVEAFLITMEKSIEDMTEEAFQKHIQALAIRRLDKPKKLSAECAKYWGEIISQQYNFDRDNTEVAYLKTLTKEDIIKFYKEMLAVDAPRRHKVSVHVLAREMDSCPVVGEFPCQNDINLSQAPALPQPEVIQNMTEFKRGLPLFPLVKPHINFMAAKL
# [3] = target: T2, Short transient receptor potential channel 4 (Mus musculus, UniProt Q9QUQ5); assay: mouse TRPC4 channel activators, dose response, cell-based, HEK293 TRPC4/mu-opioid, Fluo-4 calcium (AID 434937); format: functional
# T2 sequence (Q9QUQ5 whole entry): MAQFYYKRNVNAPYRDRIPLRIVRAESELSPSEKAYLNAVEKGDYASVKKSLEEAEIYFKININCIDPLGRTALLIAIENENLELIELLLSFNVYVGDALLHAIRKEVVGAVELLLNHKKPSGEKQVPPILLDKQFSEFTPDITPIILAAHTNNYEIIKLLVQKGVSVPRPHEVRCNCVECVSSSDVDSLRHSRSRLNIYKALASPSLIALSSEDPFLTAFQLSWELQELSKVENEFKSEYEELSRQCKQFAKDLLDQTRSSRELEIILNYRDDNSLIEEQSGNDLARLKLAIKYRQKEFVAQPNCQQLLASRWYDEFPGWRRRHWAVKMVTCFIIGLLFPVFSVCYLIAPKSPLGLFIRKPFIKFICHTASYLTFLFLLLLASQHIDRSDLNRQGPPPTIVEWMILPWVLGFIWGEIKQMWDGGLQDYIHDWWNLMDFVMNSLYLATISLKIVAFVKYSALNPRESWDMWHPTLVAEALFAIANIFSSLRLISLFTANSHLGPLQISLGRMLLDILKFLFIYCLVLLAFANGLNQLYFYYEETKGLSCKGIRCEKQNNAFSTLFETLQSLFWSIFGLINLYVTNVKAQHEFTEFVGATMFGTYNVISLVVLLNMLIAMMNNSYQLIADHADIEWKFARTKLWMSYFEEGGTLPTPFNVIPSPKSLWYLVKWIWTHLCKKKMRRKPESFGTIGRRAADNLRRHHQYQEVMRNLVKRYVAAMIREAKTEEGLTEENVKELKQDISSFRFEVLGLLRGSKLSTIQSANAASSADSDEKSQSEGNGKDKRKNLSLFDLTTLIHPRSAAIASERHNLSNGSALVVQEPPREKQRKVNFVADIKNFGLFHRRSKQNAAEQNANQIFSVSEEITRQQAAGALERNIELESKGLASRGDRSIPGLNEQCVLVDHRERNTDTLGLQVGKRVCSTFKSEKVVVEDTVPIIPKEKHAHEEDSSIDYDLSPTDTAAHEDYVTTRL
# [4] = growth suppression of PTEN-null colon cells, dose response, cell-based, HCT116 PTEN knockout (AID 1047); format: functional;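 further: HCT116 colon tumor cells with PTEN knocked out; cells exposed to compound for 60 hours before readout; potency for loss of cell viability measured by luminescence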
# [5] = growth suppression of beta-catenin-knockout colon cells, dose response, cell-based, HCT116, human colon tumor (AID 1045); format: functional;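 further: HCT116 colon tumor cells with beta catenin knocked out; cells exposed to compound for 60 hours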
# [6] = Luminescence Cell-Based Dose Retest to Confirm Inhibitors of Cancer Stem Cells. [Related pubchem assays (depositor defined):AID2717, AID2721]; format: functional; details: Homo sapiens
# [7] = target: T3, Microphthalmia-associated transcription factor (Homo sapiens, UniProt O75030); assay: TRPM1 promoter luciferase signal decrease, dose response, MITF inhibitor project, cell-based, SK-MEL-5, cherry-picked, set 3 (AID 493073); format: functional
# T3 sequence (O75030 whole entry): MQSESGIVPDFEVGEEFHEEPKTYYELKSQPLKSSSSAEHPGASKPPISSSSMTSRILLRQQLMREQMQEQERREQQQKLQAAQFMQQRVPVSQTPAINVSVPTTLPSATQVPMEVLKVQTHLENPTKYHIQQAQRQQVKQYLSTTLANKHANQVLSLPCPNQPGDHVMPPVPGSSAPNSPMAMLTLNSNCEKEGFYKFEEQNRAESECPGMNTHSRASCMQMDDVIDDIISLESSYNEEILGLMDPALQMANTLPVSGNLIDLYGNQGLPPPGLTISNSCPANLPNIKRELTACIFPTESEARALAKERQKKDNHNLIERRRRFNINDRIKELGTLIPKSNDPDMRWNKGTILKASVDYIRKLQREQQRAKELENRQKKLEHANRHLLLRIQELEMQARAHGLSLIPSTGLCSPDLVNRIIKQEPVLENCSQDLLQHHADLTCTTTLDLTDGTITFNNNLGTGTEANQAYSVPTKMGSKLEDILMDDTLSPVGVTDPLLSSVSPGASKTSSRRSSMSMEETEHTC
# [8] = target: T4, X-box-binding protein 1 (Homo sapiens, UniProt P17861); format: functional, Cricetulus griseus;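 further: confirmatory dose-response counter-screen serving a CHOP assay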
# T4 sequence (P17861 whole entry): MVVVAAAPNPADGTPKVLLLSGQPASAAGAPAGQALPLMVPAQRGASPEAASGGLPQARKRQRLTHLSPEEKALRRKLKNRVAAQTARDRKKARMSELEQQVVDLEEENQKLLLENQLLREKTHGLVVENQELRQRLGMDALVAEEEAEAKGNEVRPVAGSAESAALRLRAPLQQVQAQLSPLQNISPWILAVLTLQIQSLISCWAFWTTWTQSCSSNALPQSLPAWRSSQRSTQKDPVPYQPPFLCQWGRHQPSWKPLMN
# [9] = Shn3 3'UTR reporter inhibitors, dose response, cell-based, Clone20 osteoblasts, firefly luciferase, cherry-picked (AID 624132); format: functional;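 further: firefly luciferase luminescence from reporter carrying the Shn3 3'UTR in osteoblasts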
# [10] = HepG2 cell cytotoxicity, dose response, cytotoxicity control for Shn3 inhibitor project, CellTiter-Glo, cherry-picked (AID 624134); format: functional, cell-based
# [11] = control 3'UTR Renilla luciferase suppression, dose response, counter-screen for Shn3 inhibitor project, cell-based, Clone20-Shn3RL, cherry-picked (AID 624133); format: functional
# [12] = target: SUMO-activating enzyme (Homo sapiens, UniProt Q9UBT2); assay: SUMOylation inhibitor hit validation, confirmation, SUMOylation inhibitor project, biochemical, AlphaScreen (AID 2018); format: functional
# [13] = target: Glyceraldehyde-3-phosphate dehydrogenase (Homo sapiens, UniProt P04406)
# [14] = target: T5, Alkaline phosphatase, tissue-nonspecific isozyme (Homo sapiens, UniProt P05186); assay: human TNAP enzyme inhibitors, SAR follow-up, biochemical, luminescent, dose response (AID 1056)
# T5 sequence (P05186 whole entry): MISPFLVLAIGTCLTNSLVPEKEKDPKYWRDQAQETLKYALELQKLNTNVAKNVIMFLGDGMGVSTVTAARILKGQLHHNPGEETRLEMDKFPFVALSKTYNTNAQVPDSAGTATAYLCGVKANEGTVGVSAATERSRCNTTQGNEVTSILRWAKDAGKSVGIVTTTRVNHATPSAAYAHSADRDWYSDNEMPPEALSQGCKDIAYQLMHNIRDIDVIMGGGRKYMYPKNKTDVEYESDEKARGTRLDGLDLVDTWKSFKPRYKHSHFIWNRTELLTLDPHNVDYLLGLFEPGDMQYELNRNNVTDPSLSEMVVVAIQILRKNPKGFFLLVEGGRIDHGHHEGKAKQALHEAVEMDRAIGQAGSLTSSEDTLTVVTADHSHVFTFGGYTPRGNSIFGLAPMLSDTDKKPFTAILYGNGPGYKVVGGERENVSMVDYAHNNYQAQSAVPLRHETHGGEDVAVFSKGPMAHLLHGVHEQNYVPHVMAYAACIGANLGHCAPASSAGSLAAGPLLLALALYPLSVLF
# [15] = target: Intestinal-type alkaline phosphatase (Homo sapiens, UniProt P09923); assay: human intestinal alkaline phosphatase activators, dose response, biochemical, luminescence, uHTS hits (AID 463120); format: functional
# [16] = insulin promoter down-regulators in MIN6 cells, imaging, high-content screening, mouse beta cells (AID 1628); format: functional
# [17] = cytotoxicity in MIN6 insulinoma cells, dose response, cytotoxicity control, cell-based, mouse insulinoma (AID 2122); format: functional;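 further: confirmatory high-throughput counterscreen run to flag cytotoxic compounds; mouse MIN-6 beta cells carrying an insulin promoter eGFP reporter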
# [18] = target: T6, Lysine-specific demethylase 4C (Homo sapiens, UniProt Q9H3R0); assay: GASC-1 (JMJD2C) histone demethylase inhibitors, dose response, biochemical, DELFIA europium, cherry-picked samples (AID 488835); format: functional
# T6 sequence (Q9H3R0 whole entry): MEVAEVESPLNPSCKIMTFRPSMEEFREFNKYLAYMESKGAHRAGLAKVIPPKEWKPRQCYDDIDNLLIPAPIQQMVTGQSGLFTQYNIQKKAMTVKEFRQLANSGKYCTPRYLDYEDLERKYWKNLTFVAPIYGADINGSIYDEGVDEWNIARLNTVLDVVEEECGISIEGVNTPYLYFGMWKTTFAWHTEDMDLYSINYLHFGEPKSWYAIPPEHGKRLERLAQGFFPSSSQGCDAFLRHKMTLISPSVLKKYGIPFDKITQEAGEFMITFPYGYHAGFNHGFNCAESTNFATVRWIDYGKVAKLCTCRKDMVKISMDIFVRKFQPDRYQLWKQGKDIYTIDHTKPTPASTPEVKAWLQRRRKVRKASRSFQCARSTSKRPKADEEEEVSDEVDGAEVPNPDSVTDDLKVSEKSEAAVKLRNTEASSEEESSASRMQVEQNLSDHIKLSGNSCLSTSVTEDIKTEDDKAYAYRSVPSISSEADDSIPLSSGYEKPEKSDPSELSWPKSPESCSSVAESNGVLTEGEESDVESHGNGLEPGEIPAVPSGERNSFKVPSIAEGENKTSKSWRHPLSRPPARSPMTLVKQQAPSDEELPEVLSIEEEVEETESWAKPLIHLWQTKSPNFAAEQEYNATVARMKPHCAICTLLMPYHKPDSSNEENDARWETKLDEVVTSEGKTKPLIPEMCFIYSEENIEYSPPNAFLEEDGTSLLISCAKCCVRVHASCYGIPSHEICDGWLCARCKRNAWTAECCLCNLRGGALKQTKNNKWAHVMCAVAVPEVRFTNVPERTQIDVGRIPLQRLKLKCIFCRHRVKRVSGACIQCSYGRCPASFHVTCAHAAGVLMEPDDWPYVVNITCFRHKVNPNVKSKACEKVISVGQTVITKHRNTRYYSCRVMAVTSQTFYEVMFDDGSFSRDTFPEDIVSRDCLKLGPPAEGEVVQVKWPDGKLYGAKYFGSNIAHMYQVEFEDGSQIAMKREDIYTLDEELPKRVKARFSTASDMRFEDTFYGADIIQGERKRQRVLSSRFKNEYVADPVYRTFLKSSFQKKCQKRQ
# [19] = cells; format: functional, cell-based
# [20] = cells; format: functional, cell-based; remark: listed apart in the source
# Chain of SUMO-activating enzyme (Q9UBE0 whole entry): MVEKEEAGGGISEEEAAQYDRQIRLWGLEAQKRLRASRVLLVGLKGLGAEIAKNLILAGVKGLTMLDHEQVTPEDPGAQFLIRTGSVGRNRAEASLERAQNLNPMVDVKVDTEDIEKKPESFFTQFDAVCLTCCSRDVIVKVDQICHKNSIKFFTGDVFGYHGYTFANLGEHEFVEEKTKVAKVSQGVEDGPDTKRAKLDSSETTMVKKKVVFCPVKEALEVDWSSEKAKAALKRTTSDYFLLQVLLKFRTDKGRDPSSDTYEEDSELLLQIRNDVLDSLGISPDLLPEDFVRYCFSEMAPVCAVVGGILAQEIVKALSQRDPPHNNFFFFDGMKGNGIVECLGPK
# Chain of SUMO-activating enzyme (Q9UBT2 whole entry): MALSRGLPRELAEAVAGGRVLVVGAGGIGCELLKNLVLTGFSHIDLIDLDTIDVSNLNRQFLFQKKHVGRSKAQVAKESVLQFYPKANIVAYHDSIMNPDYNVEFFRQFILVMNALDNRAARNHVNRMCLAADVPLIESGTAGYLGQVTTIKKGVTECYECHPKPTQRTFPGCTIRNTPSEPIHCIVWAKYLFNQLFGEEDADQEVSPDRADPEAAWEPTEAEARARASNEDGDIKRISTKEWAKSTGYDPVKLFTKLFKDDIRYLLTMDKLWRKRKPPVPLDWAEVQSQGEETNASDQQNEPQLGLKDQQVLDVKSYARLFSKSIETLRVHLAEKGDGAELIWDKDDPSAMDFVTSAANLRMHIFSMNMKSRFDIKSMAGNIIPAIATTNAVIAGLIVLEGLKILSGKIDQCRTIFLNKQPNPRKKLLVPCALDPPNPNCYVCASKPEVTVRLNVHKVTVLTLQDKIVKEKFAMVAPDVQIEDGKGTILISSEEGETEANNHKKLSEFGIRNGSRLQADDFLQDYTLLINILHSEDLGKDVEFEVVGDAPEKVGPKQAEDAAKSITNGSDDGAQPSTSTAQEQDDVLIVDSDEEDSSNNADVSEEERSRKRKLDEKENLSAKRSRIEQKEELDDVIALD
# Chain of Glyceraldehyde-3-phosphate dehydrogenase (P04406 whole entry): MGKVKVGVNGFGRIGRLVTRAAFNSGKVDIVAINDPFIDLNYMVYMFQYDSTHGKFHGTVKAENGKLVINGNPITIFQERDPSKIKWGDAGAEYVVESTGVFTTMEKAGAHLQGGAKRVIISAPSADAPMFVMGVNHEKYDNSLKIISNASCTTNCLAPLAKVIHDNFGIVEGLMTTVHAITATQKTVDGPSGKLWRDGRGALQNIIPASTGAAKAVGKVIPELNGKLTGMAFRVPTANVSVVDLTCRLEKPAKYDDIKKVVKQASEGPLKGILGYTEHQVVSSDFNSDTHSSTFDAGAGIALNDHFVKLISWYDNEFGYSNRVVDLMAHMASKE
# Chain of Intestinal-type alkaline phosphatase (P09923 whole entry): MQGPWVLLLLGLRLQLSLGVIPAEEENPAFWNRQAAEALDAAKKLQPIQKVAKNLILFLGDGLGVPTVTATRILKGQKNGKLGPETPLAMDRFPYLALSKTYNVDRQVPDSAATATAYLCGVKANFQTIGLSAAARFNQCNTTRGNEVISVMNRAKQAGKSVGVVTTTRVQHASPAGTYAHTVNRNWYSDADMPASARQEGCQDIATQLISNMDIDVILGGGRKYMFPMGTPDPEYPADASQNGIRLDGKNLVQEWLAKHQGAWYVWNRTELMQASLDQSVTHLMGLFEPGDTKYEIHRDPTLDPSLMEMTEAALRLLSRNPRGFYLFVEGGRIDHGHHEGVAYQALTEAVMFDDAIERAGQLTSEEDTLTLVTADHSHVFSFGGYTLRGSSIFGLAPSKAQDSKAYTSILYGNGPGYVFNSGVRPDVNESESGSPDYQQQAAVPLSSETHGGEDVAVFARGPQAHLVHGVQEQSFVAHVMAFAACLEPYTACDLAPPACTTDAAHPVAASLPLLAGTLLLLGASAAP
compound,measurement,setting,value
COc1cc(/C=C2\SC(=S)N(NC(C)=O)C2=O)ccc1OC(=O)c1ccco1,IC50,[1],> 55.7 µM (not active)
same,IC50,[2],5.78 µM (active)
CNCC(=O)N1CCN(c2ncc(C(F)(F)F)cc2Cl)CC1,EC50,[3],0.105 µM (active)
CC(=O)OCCCNc1cc(Sc2ccc(Cl)cc2)c2nonc2c1[N+](=O)[O-],EC50,[4],13.1 µM (active)
same,EC50,[5],11.3 µM (active)
same,AC50,[6],4.57 µM (active)
same,AC50,[7],10.9 µM (active)
same,Absolute IC50 (XBP1),[8],10 µM
same,AC50,[9],1.14 µM (active)
same,AC50,[10],43.7 µM (active)
same,AC50,[11],7.64 µM (active)
CCCC(=O)Nc1ccc2oc(-c3cncc(Br)c3)nc2c1,IC50,[12],90.5 µM (active)
O=C1c2ccccc2C(=O)N1c1nnc(CCc2ccccc2)[nH]1,IC50,[13],> 100 µM (not active)
same,IC50,[14],66.5 µM (active)
Cc1ccc(O)c(N/C=C/C(=O)c2ccc(F)cc2)c1,EC50,[15],> 100 µM (inactive)
N#C/C(=C(/O)c1ccc(S(=O)(=O)N(CCCl)CCCl)cc1)c1nc2ccccc2[nH]1,IC50,[12],73.8 µM (active)
CC(C)C(=O)Nc1cccc(C(=O)N2CCCCC2C)c1 (stereo not given),IC50,[16],2.43 µM (active)
same,IC50,[17],1.99 µM (active)
Cc1ccc(C(C(=O)NC2CCCCC2)N(C(=O)Cc2c[nH]c3ccccc23)c2ccccc2C)o1 (stereo not given),Absolute IC50 (XBP1),[8],10 µM
Cc1cccc(N2C(=O)NC(=O)/C(=C\c3cnc(-c4ccccc4)nc3)C2=O)c1,AC50,[18],15.2 µM (active)
O=C(O)CC12CC3CC(C1)CC(n1ncc(NCc4ccccc4Cl)c(Cl)c1=O)(C3)C2,IC50,[1],> 55.7 µM (not active)
same,IC50,[2],9.59 µM (active)
O=C(C1CCCN(Cc2ccccc2F)C1)N1CCc2ccccc2C1 (stereo not given),EC50,[19],> 350 µM (not active)
same,EC50,[20],> 350 µM (not active)
same,EC50,[3],0.299 µM (active)
